Laboratory results from US20170064958A1, “Active compound combinations having insecticidal properties” (BAYER CROPSCIENCE AKTIENGESELLSCHAFT, priority 2014, published 2017).

Key:
Format in all cases: in vivo
[1] = system: two spotted spidermite (Tetranychus urticae); experiment: Tetranychus urticae - spray test OP-resistant; conditions: single active ingredient, French bean leaf disks; for Efficacy in % after 2d: 0.8 g ai/ha, mortality after 2 d
Method: (§1) To produce a suitable preparation of active compound, 1 part by weight of active compound is mixed with the stated amount of solvents and is diluted with water, containing an emulsifier concentration of 1000 ppm, to the desired concentration. To produce a suitable preparation of a spore suspension the spores are diluted with emulsifier containing water to the desired concentration. Further test concentrations are prepared by dilution with emulsifier containing water.
French bean (Phaseolus vulgaris) leaf disks which are heavily infested with all stages of the two spotted spidermite (Tetranychus urticae), are sprayed with a preparation of the active ingredient of the desired concentration.
After the specified period of time, mortality in % is determined 100% means all spider mites have been killed and 0% means none of the spider mites have been killed. The mortality values determined thus are recalculated using the Colby-formula (see sheet 1).

[2] = system: mustard beetle larvae (Phaedon cochleariae); experiment: Phaedon cochleariae - spray test; conditions: single active ingredient, 0.16 g ai/ha, mortality after 6 d, Chinese cabbage leaf disks
Method: as §1
Chinese cabbage (Brassica pekinensis) leaf disks are sprayed with a preparation of the active ingredient of the desired concentration. Once dry, the leaf disks are infested with mustard beetle larvae (Phaedon cochleariae).
After the specified period of time, mortality in % is determined. 100% means all beetle larvae have been killed and 0% means none of the beetle larvae have been killed. The mortality values determined thus are recalculated using the Colby-formula (see sheet 1).

[3] = system: green peach aphid (Myzus persicae); experiment: Myzus persicae - spray test; conditions: single active ingredient, 0.8 g ai/ha, mortality after 1 d, Chinese cabbage leaf disks
Method: as §1
Chinese cabbage (Brassica pekinensis) leaf disks infected with all instars of the green peach aphid (Myzus persicae), are sprayed with a preparation of the active ingredient of the desired concentration.
After the specified period of time, mortality in % is determined 100% means all aphids have been killed; 0% means none of the aphids have been killed. The mortality values determined thus are recalculated using the Colby-formula (see sheet 1).

| Compound | Efficacy in % after 2d [1] [%] | Efficacy in % after 6d [2] [%] | Efficacy in % after 1d [3] [%] | Efficacy in % after 6d ([1]; 0.16 g ai/ha, mortality after 6 d) [%] |
| --- | --- | --- | --- | --- |
| Cc1c(COC(=O)[C@@H]2[C@H](/C=C(\Cl)C(F)(F)F)C2(C)C)cccc1-c1ccccc1 (racemic) [Bifenthrin] | 0 |  |  |  |
| CC1(C)[C@H](C(=O)O[C@H](C#N)c2cccc(Oc3ccccc3)c2)[C@@H]1/C=C(\Cl)C(F)(F)F (racemic) [Lambda- Cyhalothrin, lambda-Cyhalothrin] |  | 33 |  |  |
| CC1(C)[C@H](C(=O)O[C@H](C#N)c2cccc(Oc3ccccc3)c2)[C@@H]1/C=C\C(=O)OC(C(F)(F)F)C(F)(F)F [Acrinathrin] | 0 |  | 70 | 0 |
| CC1(C)[C@H](C(=O)O[C@H](C#N)c2cccc(Oc3ccccc3)c2)[C@@H]1C=C(Br)Br [Deltamethrin] | 0 |  |  |  |
